Earlier results as cited in patent US20090253799A1 (priority 2008, published 2009).

Molecular target: T1, wildtype CFTR (Homo sapiens, UniProt P13569)
T1 construct: expressed in transfected cells
Settings: Muanprasat et al. 2004

T1 sequence (P13569 whole entry): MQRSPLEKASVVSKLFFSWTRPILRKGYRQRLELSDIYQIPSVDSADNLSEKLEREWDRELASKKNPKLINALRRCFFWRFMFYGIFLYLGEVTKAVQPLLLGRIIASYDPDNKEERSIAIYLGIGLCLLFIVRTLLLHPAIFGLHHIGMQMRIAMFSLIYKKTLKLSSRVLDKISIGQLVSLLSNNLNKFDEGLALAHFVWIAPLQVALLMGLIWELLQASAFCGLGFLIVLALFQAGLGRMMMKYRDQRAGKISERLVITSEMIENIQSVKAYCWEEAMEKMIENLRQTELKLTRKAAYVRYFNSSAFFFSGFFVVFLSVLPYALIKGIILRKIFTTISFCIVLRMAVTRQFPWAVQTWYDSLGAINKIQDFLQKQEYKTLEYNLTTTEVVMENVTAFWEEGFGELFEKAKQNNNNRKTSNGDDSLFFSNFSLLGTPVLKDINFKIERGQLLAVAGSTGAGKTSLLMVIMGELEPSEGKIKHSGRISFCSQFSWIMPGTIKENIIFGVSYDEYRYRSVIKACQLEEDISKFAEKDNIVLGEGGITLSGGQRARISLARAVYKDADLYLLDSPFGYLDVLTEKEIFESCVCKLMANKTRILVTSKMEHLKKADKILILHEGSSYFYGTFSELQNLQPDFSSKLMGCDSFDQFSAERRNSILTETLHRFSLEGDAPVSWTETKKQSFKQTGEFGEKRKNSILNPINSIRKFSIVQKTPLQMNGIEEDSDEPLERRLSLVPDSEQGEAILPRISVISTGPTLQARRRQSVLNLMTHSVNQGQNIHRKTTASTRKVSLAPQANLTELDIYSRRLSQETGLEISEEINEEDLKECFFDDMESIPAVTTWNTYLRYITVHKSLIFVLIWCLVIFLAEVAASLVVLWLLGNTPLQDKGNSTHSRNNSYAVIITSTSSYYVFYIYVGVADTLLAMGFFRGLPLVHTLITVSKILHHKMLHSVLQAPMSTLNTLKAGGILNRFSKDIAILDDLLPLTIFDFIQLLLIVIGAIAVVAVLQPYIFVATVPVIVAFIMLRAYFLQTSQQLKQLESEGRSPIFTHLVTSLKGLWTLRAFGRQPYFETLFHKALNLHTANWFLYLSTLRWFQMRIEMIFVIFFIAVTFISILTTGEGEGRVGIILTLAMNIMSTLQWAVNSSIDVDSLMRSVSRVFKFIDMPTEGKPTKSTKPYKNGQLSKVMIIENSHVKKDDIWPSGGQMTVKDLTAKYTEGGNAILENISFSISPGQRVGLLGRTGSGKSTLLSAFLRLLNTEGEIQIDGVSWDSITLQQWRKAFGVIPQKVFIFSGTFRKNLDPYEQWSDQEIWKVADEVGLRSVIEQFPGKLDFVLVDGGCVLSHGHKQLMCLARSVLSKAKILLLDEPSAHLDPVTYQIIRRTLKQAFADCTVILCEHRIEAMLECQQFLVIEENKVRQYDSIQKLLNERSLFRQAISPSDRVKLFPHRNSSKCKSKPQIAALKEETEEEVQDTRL

Compound: O=C(CNc1ccc2ccccc2c1)N/N=C/c1cc(Br)c(O)c(Br)c1O [GlyH-101]
- time constants for block and unblock: 8 to 10 ms
